The values that follow come from article PMC11643554, “Synthesis, Cytotoxicity and Antiproliferative Effect of New Pyrrole Hydrazones” (Molecules, 2024).

As usually defined, the IC50 is the concentration that inhibits the measured activity by half. As a reminder, the melting point is the temperature, or range, at which the solid turns liquid. Usually CC50 stands for the concentration giving 50% cytotoxicity.

The test system of one data set is melanoma cells. Also noted: method as in PMID 25524552, PMID 29364157. Conditions: standard cytostatics used in chemotherapy, compared with 1C in SH-4 melanoma cells; cited from earlier work.
A short description of data set [1]: BALB 3T3 Neutral Red Uptake safety test (cytotoxicity/phototoxicity). The class given is cell-based, mouse. The settings on record: mouse, BALB 3T3 clone A31 embryonic fibroblasts, BALB 3T3, NRU, 24 h incubation, n = 6. How it is done:
(§1) The Neutral Red Uptake in vitro assay is a colorimetric method for assessing cell viability. This method is based on the ability of living cells to incorporate Neutral Red dye into lysosomes. Mouse embryonic fibroblasts were seeded at 1 × 10^4 cells/100 μL culture medium/well in 96-well cell culture microplates. The cells were incubated for 24 h to allow cell adhesion. The cells were then treated with a solution of the test substances in double-increasing concentrations (from 15 to 4000 μM). The phototoxicity test was performed in parallel on a second 96-well plate, which was irradiated with a solar simulator (LED lamp—Helios-iO (SERIC Ltd., Tokyo, Japan) for 10 min (irradiation dose 0.86 J). After 24 h of incubation, a culture medium containing Neutral Red was added. After 3 h of incubation, the wells were washed with PBS, and a Desorb solution (50% Ethanol, 1% Acetic acid, 49% dH2O) was added. The optical density (OD) was measured by a microplate reader at λ = 540 nm. The percentage of cytotoxicity was calculated according to the following formula:Cytotoxicity (%) = (1 − (OD540 (sample)/OD540 (negative control))) × 100 Phototoxicity is expressed by Photoirritation factor (PIF), PIF = CC50 − Irr/CC50 +Irr* * Irradiation

The test system of data set [2] is mouse embryonic fibroblasts BALB 3T3 clone A31. The description is as above. Type of data set: cell-based. Conditions: PIF = CC50 −Irr/CC50 +Irr; PIF < 2 not phototoxic, 2 < PIF < 5 probable phototoxicity, PIF > 5 phototoxic. Here is the method: as §1
The subject of data set [3] is SH-4 cells. Briefly: Annexin V-FITC/PI flow cytometry assay (apoptosis). Type of data set: cell-based, human. Here is the method: Apoptosis was discriminated with the annexin V-FITC/PI test according to the manufacturer’s protocol (SIGMA-ALDRICH APOAF). […] After completion of each drug incubation, cell media that may contain cells in suspension was centrifuged at 350× g for 5 min. Subsequently, the cell monolayers were washed once with PBS, and cells were detached with trypsin and then collected together with a centrifuged pellet. The cells were washed twice with cold PBS and then resuspended in a Binding Buffer (0.1 M Hepes/NaOH (pH 7.4), 1.4 M NaCl, 25 mM CaCl2) at a concentration of 1 × 10^5 cells/mL. The cells were incubated with 5 µL of FITC Annexin V and 10 µL PI for 20 min at RT (25 °C) in the dark. The analysis was performed with BD FACS DIVA software version 7.0 (BD Biosciences, Franklin Lakes, NJ, USA). Data were analyzed as follows: lower left quadrant, viable cells (Annexin V−/PI−); lower right quadrant, early apoptotic cells (Annexin V+/PI−); upper right quadrant, late apoptotic cells (annexin V+/PI+); upper left quadrant, necrotic cells (annexin V−/PI+). Three independent experiments were performed, with two replicates per experiment.
Background: In flow cytometry, cells or beads pass a laser one at a time.

For data set [4], the system named is SH-4 cells. Kind of data set: Cell cycle analysis, PI stain, flow cytometry. The class given is cell-based, human. The settings on record: SH-4, 48 h, 1 6 µM, 1A 260 µM, 1B 260 µM, 1C 40 µM, 1D 8 µM, cisplatin 20 µM. How it is done: After incubation, cells were washed twice with ice-cold PBS and fixed with ice-cold 70% ethanol at −20 °C overnight. The cells were treated with 20 µg/mL RNase A at 37 °C for 60 min, then washed with PBS and finally stained with 20 µg/mL PI in the dark for 30 min. The cellular DNA content for the cell cycle distribution analysis was performed with the system software (BD FACS DIVA software (BD Biosciences, Franklin Lakes, NJ, USA)), plotting at least 10,000 events per sample. Three independent experiments were performed, with two replicates per experiment.

Data set [5] relates to human keratinocytes HaCaT. Briefly: Antiproliferative activity, MTT dye reduction assay, HaCaT. Type of data set: cell-based. The settings on record: Homo sapiens, non-tumor keratinocytes HaCaT, 72 h, n = 6, read-out: Mean IC50 ± SD, HaCaT. How it is done: (§2) The antiproliferative activity of the studied substances was determined by MTT dye reduction assay. The assay is based on the metabolism of MTT by reductases in the mitochondria to formazan, the concentration of which can be determined photometrically. The measured absorbance is an indicator of cell viability and metabolic activity. Cells were seeded in 96-well cell culture plates (1 × 10^3 cells/well). Followed by incubation at 37 °C, 5% CO2 for 24 h. Followed by incubation for 72 h of the cells with the studied substances in twice increasing concentrations. After washing with PBS, 100 µL/well of MTT solution (0.5 mg/mL) was added. After 3 h of incubation, the 96-well plates were washed with PBS, and 100 µL/well of lysing solution (DMSO/Ethanol = 1/1) was added. Optical density was measured at a wavelength of 540 nm. The antiproliferative activity expressed in % of the negative control was calculated according to the following formula:Antiproliferative activity (%) = (1 − (OD540 (sample)/OD540 (negative control))) × 100
(§3) The IC50 values (a concentration that inhibited 50% cell proliferation) were calculated using non-linear regression analysis (GraphPad Prizm8 Software). The statistical analysis included the application of one-way ANOVA followed by Bonferroni’s post hoc test. p < 0.05 was accepted as the lowest level of statistical significance. All results are presented as mean ± SD.
On the technique in general: Tetrazolium dyes change colour on reduction, which living cells bring about.

For the next data set, the system named is human melanoma SH-4. Briefly: Antiproliferative activity, MTT dye reduction assay, SH-4. Type of data set: cell-based. How it is done:
as §2, §3

Where [6] appears, read: SH-4, 48 h, 1 6 µM, 1A 260 µM, 1B 260 µM, 1C 40 µM, 1D 8 µM, cisplatin 20 µM.

Like-named read-outs stand apart in the source and are kept apart here.

On to `CN(C)C(=O)c1cc2cnc(Nc3ccc(N4CCNCC4)cn3)nc2n1C1CCCC1` [Ribociclib], for which the IC50 in the data set on melanoma cells is 35 µM.
Consider `CCOC(=O)c1cc(-c2ccc(Cl)cc2)n(C(Cc2ccccc2)C(=O)NN)c1C` (stereo not drawn) [Compound 1, Ethyl-5-(4-chlorophenyl)-1-(1-hydrazinyl-1-oxo-3-phenylpropan-2-yl)-2-methyl-1H-pyrrole-3-carboxylate], for which the melting point lay in the range of 170 to 173 °C. For the same molecule, the CC50 at 24 h in data set [1] (irradiated with solar simulator 10 min (0.86 J), read-out: Mean CC50 ± SD, +Irr) is 55.8 ± 4.49 µM. For the same molecule, the CC50 at 24 h in data set [1] (without irradiation, read-out: Mean CC50 ± SD, −Irr) was found to be 52.3 ± 2.63 µM. For the same molecule, the “PIF (Photo Irritation Factor)” value in data set [2] was 0.94. The viability at 6 µM in the data set on SH-4 cells [3] (Homo sapiens, SH-4, 48 h, read-out: Live (viable cells, Annexin V−/PI−, Q4)) was 48.3%. Moreover, in the data set with SH-4 cells [3] (setting [6]), the “Early apoptosis (Annexin V+/PI−, Q3)” value was determined as 42.7%; the “Late apoptosis (Annexin V+/PI+, Q2)” value stood at 8.74%; the “Necrosis (Annexin V−/PI+, Q1)” value was 0.19%. Besides, the “increase of total apoptotic cell populations compared to the control group” value with SH-4 cells [3] (SH-4, 48 h incubation, 6 µM) was found to be 50%. Further, in the data set with SH-4 cells [4] (control 12.1), the “G2 phase, percentage of cells” value worked out at 13.4%. Moreover, the “S phase, percentage of cells” value in the data set on SH-4 cells [4] (control 21.6) was determined as 28.5%. For the same molecule, the “G0/G1 phase, percentage of cells” value in the data set on SH-4 cells [4] (control 63.6) was found to be 57%. Further, the IC50 in data set [5] stood at 9.64 ± 0.58 µM. The IC50 in the data set on human melanoma SH-4 (Homo sapiens, melanoma SH-4, MTT, 72 h, n = 6, read-out: Mean IC50 ± SD, SH-4) is 6.86 ± 0.6 µM. For the same molecule, in the data set with human melanoma SH-4 (SI = IC50 (non-tumor cell line HaCaT)/IC50 (tumor cell line SH-4)), the “SI (Selective index)” value came to 1.41.
In the case of `N.N.O=C([O-])C1(C(=O)[O-])CCC1.[Pt+2]` [Carboplatin], the IC50 in the data set on melanoma cells was 18.2 µM.
In the case of `Cn1nnc2c(C(N)=O)ncn2c1=O` [Temozolomide], in the data set with melanoma cells, the IC50 was 50 µM.
